In brackets after ≈: the same amount, converted by molar mass. Read-outs that look alike come from different tables or passages of the source. Where a SMILES comes first, the peptide text is derived from it. Bridges are numbered along the chain shown (N, C = ends). [ ]: non-standard residue; d: D form. The star is where a group is joined. dPhe(4-tBu) = CC(C)(C)c1ccc(C[C@@H](N)C(=O)O)cc1; dBpa = N[C@H](Cc1ccc(C(=O)c2ccccc2)cc1)C(=O)O; Benzoyl(4-OPh) = O=C(c1ccc(Oc2ccccc2)cc1)*; dPhe(3-Cl) = N[C@H](Cc1cccc(Cl)c1)C(=O)O; X2 = CC[C@H](C)CCCCC(=O)*; Octanoyl = CCCCCCCC(=O)*; Dab = NCC[C@H](N)C(=O)O; Nva = CCC[C@H](N)C(=O)O; X4 = COCCCCCC(=O)*
Assays:
Format in all cases: cell-based
[1] = tested on: Acinetobacter baumannii ATCC 19606
Protocol: (§1) The minimum inhibitory concentration (MIC) was determined by means of dish double dilution method using a Multipoint inoculator according to the CLSI recommended method. The compounds of the present invention (for example, the compounds prepared in the Embodiments) and the reference substances were diluted twice each time with the broth into various desired concentrations, and appropriate amounts were added to the dishes. Agar medium is melted, and then quantitatively injected into the dish containing the drug solution, and mixed. The final concentrations of the compounds of the invention (e.g., the compounds prepared in the Embodiments) and the controls were 0.03, 0.06, 0.125, 0.25 . . . 128 μg/mL, respectively. The test bacteria were cultured overnight with nutrient broth, brain heart infusion or HTM broth. During the tests, the bacterial solutions were diluted appropriately, and the test bacteria (inoculation amount 10^4 CFU/dot) were inoculated on the surface of the drug-containing agar by a multi-point inoculator. After drying, the bacterial was incubated for 18 to 24 hours at 35° C., the results were observed, the minimum concentrations of the compounds of the present invention (for example, the compounds prepared in the Embodiments) and the controls contained in the dishes with no growth of colonies were MICs.
(§2) The strains used in the antibacterial activity experiments were from the American Type Culture Collection (ATCC) and clinical isolates.
(§3) The strains used for the experiments on antibacterial activity included Escherichia coli ATCC 25922, Klebsiella pneumoniae ATCC BAA-2146 (NDM-1), Pseudomonas aeruginosa ATCC 27853, Acinetobacter baumannii ATCC 19606 and Staphylococcus epidermidis ATCC 12228.
(§4) Tested samples: polymyxin derivatives prepared according to the technical scheme of the present invention;
(§5) Controls: polymyxin B sulfate and colistin (polymyxin E sulfate).

[2] = tested on: Escherichia coli ATCC 25922
Protocol: as §1, §2, §3, §4, §5

[3] = tested on: Pseudomonas aeruginosa ATCC 27853
Protocol: as §1, §2, §3, §4, §5

[4] = tested on: Staphylococcus epidermidis ATCC 12228
Protocol: as §1, §2, §3, §4, §5

[5] = tested on: Klebsiella pneumoniae ATCC BAA-2146 (NDM-1); assay: Antibacterial activity, MIC by dish double dilution method
Protocol: as §1, §2, §3, §4, §5

[6] = agar dilution, 10^4 CFU/dot, 18 to 24 hours at 35° C.

SMILES | MIC A. baumannii ATCC 19606 ([1]; ATCC 19606) | MIC E. coli ATCC 25922 ([2]; ATCC 25922) | MIC P. aeruginosa ATCC 27853 ([3]; ATCC 27853) | MIC S. epidermidis ATCC 12228 ([4]; ATCC 12228) | MIC K. pneumoniae ATCC BAA-2146 (NDM-1) ([5]; ATCC BAA-2146) | MIC A. baumannii ATCC 19606 [1, 6] | MIC E. coli ATCC 25922 [2, 6] | MIC P. aeruginosa ATCC 27853 [3, 6] | MIC S. epidermidis ATCC 12228 [4, 6] | MIC K. pneumoniae ATCC BAA-2146 (NDM-1) [5, 6]
CC(C)C[C@@H]1NC(=O)[C@@H](Cc2ccccc2)NC(=O)[C@H](CCN)NC(=O)[C@@H](NC(=O)[C@H](CCN)NC(=O)[C@@H](NC(=O)[C@H](CCN)NC(=O)c2ccc(Oc3ccccc3)cc2)[C@@H](C)O)CCNC(=O)[C@H]([C@@H](C)O)NC(=O)[C@H](CCN)NC(=O)[C@H](CCN)NC1=O [Compound 8, 4-(phenoxy)benzoyl-Dab-Thr-Dab-ring(4-10)[Dab-Dab-D-Phe-Lue-Dab-Dab-Thr]] ({Benzoyl(4-OPh)}-[Dab]T[Dab][Dab][Dab][dF]L[Dab][Dab]T; lactam 4-C) | 2 µg/mL (≈ 1.59 µM) | 4 µg/mL (≈ 3.18 µM) | 8 µg/mL (≈ 6.35 µM) | 16 µg/mL (≈ 12.7 µM) | 4 µg/mL (≈ 3.18 µM) | – | – | – | – | –
CCCCCCCC(=O)N[C@@H](CCN)C(=O)N[C@H](C(=O)N[C@@H](CCN)C(=O)N[C@H]1CCNC(=O)[C@H]([C@@H](C)O)NC(=O)[C@H](CCN)NC(=O)[C@H](CCN)NC(=O)[C@H](CCC)NC(=O)[C@@H](CC(C)C)NC(=O)[C@H](CCN)NC1=O)[C@@H](C)O [Compound 81, octanoyl-Dab-Thr-Dab-ring(4-10)[Dab-Dab-D-Leu-Nva-Dab-Dab-Thr]] (Octanoyl-[Dab]T[Dab][Dab][Dab][dL][Nva][Dab][Dab]T; lactam 4-C) | 1 µg/mL (≈ 0.876 µM) | 0.5 µg/mL (≈ 0.438 µM) | 1 µg/mL (≈ 0.876 µM) | >128 µg/mL | 1 µg/mL (≈ 0.876 µM) | – | – | – | – | –
CC[C@H](C)CCCCC(=O)N[C@@H](CCN)C(=O)N[C@H](C(=O)N[C@@H](CCN)C(=O)N[C@H]1CCNC(=O)[C@H]([C@@H](C)O)NC(=O)[C@H](CCN)NC(=O)[C@H](CCN)NC(=O)[C@H](CC(C)C)NC(=O)[C@@H](Cc2cccc(Cl)c2)NC(=O)[C@H](CCN)NC1=O)[C@@H](C)O [Compound 19, (S)-6-methyloctanoyl-Dab-Thr-Dab-ring(4-10)[Dab-Dab-D-Phe(3-Cl)-Lue-Dab-Dab-Thr]] (X2-[Dab]T[Dab][Dab][Dab][dPhe(3-Cl)]L[Dab][Dab]T; lactam 4-C) | 0.5 µg/mL (≈ 0.404 µM) | 1 µg/mL (≈ 0.808 µM) | 2 µg/mL (≈ 1.62 µM) | 4 µg/mL (≈ 3.23 µM) | 2 µg/mL (≈ 1.62 µM) | – | – | – | – | –
COCCCCCC(=O)N[C@@H](CCN)C(=O)N[C@H](C(=O)N[C@@H](CCN)C(=O)N[C@H]1CCNC(=O)[C@H]([C@@H](C)O)NC(=O)[C@H](CCN)NC(=O)[C@H](CCN)NC(=O)[C@H](CC(C)C)NC(=O)[C@@H](Cc2ccccc2)NC(=O)[C@H](CCN)NC1=O)[C@@H](C)O [Compound 1, 6-methoxycaproyl-Dab-Thr-Dab-ring(4-10)[Dab-Dab-D-Phe-Lue-Dab-Dab-Thr]] (X4-[Dab]T[Dab][Dab][Dab][dF]L[Dab][Dab]T; lactam 4-C) | 2 µg/mL (≈ 1.68 µM) | 1 µg/mL (≈ 0.839 µM) | 1 µg/mL (≈ 0.839 µM) | >128 µg/mL | 4 µg/mL (≈ 3.36 µM) | – | – | – | – | –
CC[C@H](C)CCCCC(=O)N[C@@H](CCN)C(=O)N[C@H](C(=O)N[C@@H](CCN)C(=O)N[C@H]1CCNC(=O)[C@H]([C@@H](C)O)NC(=O)[C@H](CCN)NC(=O)[C@H](CCN)NC(=O)[C@H](CC(C)C)NC(=O)[C@@H](Cc2ccc(OC)cc2)NC(=O)[C@H](CCN)NC1=O)[C@@H](C)O [Compound 24, (S)-6-methyloctanoyl-Dab-Thr-Dab-ring(4-10)[Dab-Dab-D-Phe(4-OCH3)-Lue-Dab-Dab-Thr]] (X2-[Dab]T[Dab][Dab][Dab][dY](Me)L[Dab][Dab]T; lactam 4-C) | 1 µg/mL (≈ 0.811 µM) | 1 µg/mL (≈ 0.811 µM) | 2 µg/mL (≈ 1.62 µM) | 16 µg/mL (≈ 13 µM) | 2 µg/mL (≈ 1.62 µM) | – | – | – | – | –
CC[C@H](C)CCCCC(=O)N[C@@H](CCN)C(=O)N[C@H](C(=O)N[C@@H](CCN)C(=O)N[C@H]1CCNC(=O)[C@H]([C@@H](C)O)NC(=O)[C@H](CCN)NC(=O)[C@H](CCN)NC(=O)[C@H](CC(C)C)NC(=O)[C@@H](Cc2ccc(C(=O)c3ccccc3)cc2)NC(=O)[C@H](CCN)NC1=O)[C@@H](C)O [Compound 29, (S)-6-methyloctanoyl-Dab-Thr-Dab-ring(4-10)[Dab-Dab-D-Phe(4-benzoyl)-Lue-Dab-Dab-Thr]] (X2-[Dab]T[Dab][Dab][Dab][dBpa]L[Dab][Dab]T; lactam 4-C) | 1 µg/mL (≈ 0.765 µM) | 2 µg/mL (≈ 1.53 µM) | 4 µg/mL (≈ 3.06 µM) | 16 µg/mL (≈ 12.2 µM) | 2 µg/mL (≈ 1.53 µM) | – | – | – | – | –
CC[C@H](C)CCCCC(=O)N[C@@H](CCN)C(=O)N[C@H](C(=O)N[C@@H](CCN)C(=O)N[C@H]1CCNC(=O)[C@H]([C@@H](C)O)NC(=O)[C@H](CCN)NC(=O)[C@H](CCN)NC(=O)[C@H](CC(C)C)NC(=O)[C@@H](CC(C)C)NC(=O)[C@H](CCN)NC1=O)[C@@H](C)O [Compound 70, (S)-6-methyloctanoyl-Dab-Thr-Dab-ring(4-10)[Dab-Dab-D-Leu-Leu-Dab-Dab-Thr]] (X2-[Dab]T[Dab][Dab][Dab][dL]L[Dab][Dab]T; lactam 4-C) | – | – | – | – | – | 1 µg/mL (≈ 0.855 µM) | 1 µg/mL (≈ 0.855 µM) | 2 µg/mL (≈ 1.71 µM) | 64 µg/mL (≈ 54.7 µM) | 1 µg/mL (≈ 0.855 µM)
CCCCCCCC(=O)N[C@@H](CCN)C(=O)N[C@H](C(=O)N[C@@H](CCN)C(=O)N[C@H]1CCNC(=O)[C@H]([C@@H](C)O)NC(=O)[C@H](CCN)NC(=O)[C@H](CCN)NC(=O)[C@H]([C@@H](C)O)NC(=O)[C@@H](CC(C)C)NC(=O)[C@H](CCN)NC1=O)[C@@H](C)O [Compound 104, octanoyl-Dab-Thr-Dab-ring(4-10)[Dab-Dab-D-Leu-Thr-Dab-Dab-Thr]] (Octanoyl-[Dab]T[Dab][Dab][Dab][dL]T[Dab][Dab]T; lactam 4-C) | 0.5 µg/mL (≈ 0.437 µM) | 0.25 µg/mL (≈ 0.219 µM) | 1 µg/mL (≈ 0.875 µM) | 64 µg/mL (≈ 56 µM) | 0.5 µg/mL (≈ 0.437 µM) | – | – | – | – | –
CCCCCCCC(=O)N[C@@H](CCN)C(=O)N[C@H](C(=O)N[C@@H](CCN)C(=O)N[C@H]1CCNC(=O)[C@H]([C@@H](C)O)NC(=O)[C@H](CCN)NC(=O)[C@H](CCN)NC(=O)[C@H](CC(C)C)NC(=O)[C@@H](CC(C)C)NC(=O)[C@H](CCN)NC1=O)[C@@H](C)O [Compound 78, octanoyl-Dab-Thr-Dab-ring(4-10)[Dab-Dab-D-Leu-Leu-Dab-Dab-Thr]] (Octanoyl-[Dab]T[Dab][Dab][Dab][dL]L[Dab][Dab]T; lactam 4-C) | 0.5 µg/mL (≈ 0.433 µM) | 0.5 µg/mL (≈ 0.433 µM) | 1 µg/mL (≈ 0.865 µM) | 32 µg/mL (≈ 27.7 µM) | 0.5 µg/mL (≈ 0.433 µM) | – | – | – | – | –
CC[C@H](C)CCCCC(=O)N[C@@H](CCN)C(=O)N[C@H](C(=O)N[C@@H](CCN)C(=O)N[C@H]1CCNC(=O)[C@H]([C@@H](C)O)NC(=O)[C@H](CCN)NC(=O)[C@H](CCN)NC(=O)[C@H](CC(C)C)NC(=O)[C@@H](Cc2ccc(C(C)(C)C)cc2)NC(=O)[C@H](CCN)NC1=O)[C@@H](C)O [Compound 27, (S)-6-methyloctanoyl-Dab-Thr-Dab-ring(4-10)[Dab-Dab-D-Phe(4-tBu)-Lue-Dab-Dab-Thr]] (X2-[Dab]T[Dab][Dab][Dab][dPhe(4-tBu)]L[Dab][Dab]T; lactam 4-C) | 8 µg/mL (≈ 6.35 µM) | 2 µg/mL (≈ 1.59 µM) | 4 µg/mL (≈ 3.18 µM) | 8 µg/mL (≈ 6.35 µM) | 4 µg/mL (≈ 3.18 µM) | – | – | – | – | –
CCCCCCCC(=O)N[C@@H](CCN)C(=O)N[C@H](C(=O)N[C@@H](CCN)C(=O)N[C@H]1CCNC(=O)[C@H]([C@@H](C)O)NC(=O)[C@H](CCN)NC(=O)[C@H](CCN)NC(=O)[C@H](C(C)C)NC(=O)[C@@H](CC(C)C)NC(=O)[C@H](CCN)NC1=O)[C@@H](C)O [Compound 80, octanoyl-Dab-Thr-Dab-ring(4-10)[Dab-Dab-D-Leu-Val-Dab-Dab-Thr]] (Octanoyl-[Dab]T[Dab][Dab][Dab][dL]V[Dab][Dab]T; lactam 4-C) | 1 µg/mL (≈ 0.876 µM) | 0.5 µg/mL (≈ 0.438 µM) | 1 µg/mL (≈ 0.876 µM) | >128 µg/mL | 0.5 µg/mL (≈ 0.438 µM) | – | – | – | – | –
